Experimental data: ChEMBL document CHEMBL5390283, “Discovery of PVD-06 as a Subtype-Selective and Efficient PTPN2 Degrader” (J Med Chem, 2023)

What was measured:
[1] = target: T1, Tyrosine-protein phosphatase non-receptor type 1 (Homo sapiens, UniProt P18031); experiment: Inhibition of 6xHis-tagged PTP1B (unknown origin) Escherichia coli BL21 (DE3)-RIL using OMFP as substrate incubated for 30 mins by fluorescence based assay
T1 sequence (P18031 whole entry): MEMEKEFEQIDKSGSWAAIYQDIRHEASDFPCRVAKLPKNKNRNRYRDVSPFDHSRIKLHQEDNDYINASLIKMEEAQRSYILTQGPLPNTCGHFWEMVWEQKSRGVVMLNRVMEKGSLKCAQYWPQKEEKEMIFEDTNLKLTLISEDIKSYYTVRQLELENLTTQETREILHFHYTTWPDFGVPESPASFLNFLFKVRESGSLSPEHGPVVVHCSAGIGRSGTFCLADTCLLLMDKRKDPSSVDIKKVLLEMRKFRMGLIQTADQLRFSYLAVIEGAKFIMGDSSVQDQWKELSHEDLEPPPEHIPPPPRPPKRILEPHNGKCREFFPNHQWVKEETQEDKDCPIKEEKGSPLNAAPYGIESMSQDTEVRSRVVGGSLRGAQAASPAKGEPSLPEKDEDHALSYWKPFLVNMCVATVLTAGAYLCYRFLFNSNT

[2] = target: T2, Tyrosine-protein phosphatase non-receptor type 2 (Homo sapiens, UniProt P17706); experiment: Inhibition of PTPN2 (unknown origin) using DiFMUP as substrate by […] based assay
T2 sequence (P17706 whole entry): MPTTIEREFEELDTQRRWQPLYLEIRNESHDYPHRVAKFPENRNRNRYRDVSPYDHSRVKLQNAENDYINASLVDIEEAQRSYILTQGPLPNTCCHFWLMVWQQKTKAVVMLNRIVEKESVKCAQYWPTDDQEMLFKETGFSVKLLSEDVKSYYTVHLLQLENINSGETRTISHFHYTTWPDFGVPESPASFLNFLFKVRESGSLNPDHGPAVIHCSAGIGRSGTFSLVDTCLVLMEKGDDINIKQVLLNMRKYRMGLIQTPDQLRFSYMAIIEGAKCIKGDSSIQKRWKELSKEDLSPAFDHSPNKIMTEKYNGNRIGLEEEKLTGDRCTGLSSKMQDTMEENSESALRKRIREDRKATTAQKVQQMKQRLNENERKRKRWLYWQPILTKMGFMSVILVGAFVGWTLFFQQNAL

[3] = target: T1, Tyrosine-protein phosphatase non-receptor type 1; experiment: Inhibition of PTP1B (unknown origin) using DiFMUP as substrate by […] based assay

Compound | IC50 [1] [nM] | IC50 [2] [nM] | IC50 [3] [nM]
CC(C)(C)C(=O)Nc1ccc2c(c1)C(=O)C(=O)c1ccccc1-2 | 950 | – | –
O=C1CN(c2c(O)cc3ccc(Br)cc3c2F)S(=O)(=O)N1 | – | 11.4 | 8.39
